Marks after values point to notes of the source that are not given here.

This note sets out measurements from patent US20240122180A1, “FUNGICIDAL HALOMETHYL KETONES AND HYDRATES AND THEIR MIXTURES” (FMC Corporation, priority 2020, published 2024).

Common to all, as to format: in vivo
Assay [1] concerns Puccinia recondita f. sp. tritici (the causal agent of wheat leaf rust). Nature of the assay: Test B: preventive spray on wheat seedlings, disease rating (100 = 100% control; * 50 ppm, ** 10 ppm, *** 250 ppm). The conditions noted are these: 100 = 100% disease control. An outline of the steps:
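Wheat seedlings sprayed to run-off with compound in acetone/water (50/50) containing 250 ppm PEG400, inoculated next day with Puccinia recondita f. sp. tritici spores. Held 24 h saturated at 20° C, then 6 days at 20° C; disease control rated 0–100 relative to controls.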

The test system of assay [2] is Zymoseptoria tritici (the causal agent of wheat leaf blotch). Nature of the assay: Test D: preventive spray on wheat seedlings, disease rating (100 = 100% control; * 50 ppm, ** 10 ppm, *** 250 ppm). Particulars: 250 ppm test suspension, 100 = 100% disease control; for pest or weed control at 250 ppm: Zymoseptoria tritici. An excerpt: (§1) General protocol for preparing test suspensions for Tests A-E: the test compounds were first dissolved in acetone in an amount equal to 3% of the final volume and then suspended at the desired concentration (in ppm) in acetone and purified water (50/50 mix by volume) containing 250 ppm of the surfactant […] (polyhydric alcohol esters). The resulting test suspensions were then used in Tests A-E.
The test solution was sprayed to the point of run-off on wheat seedlings. The following day the seedlings were inoculated with a spore suspension of Zymoseptoria tritici (the causal agent of wheat leaf blotch) and incubated in a saturated atmosphere at 24° C. for 48 h, and then moved to a growth chamber at 20° C. for 17 days, after which time disease ratings were made.
(§2) Results for Tests A-E are given in Table A. In the Table, a rating of 100 indicates 100% disease control and a rating of 0 indicates no disease control (relative to the controls). An asterisk “*” or a double asterisk “**” or a triple asterisk “***” next to the rating value indicates a 50 ppm, 10 ppm and 250 ppm test suspension was used, respectively. A dash (-) indicates the compound was not tested.

In assay [3] the test system is Blumeria graminis f. sp. tritici (the causal agent of wheat powdery mildew). Nature of the assay: Test E: preventive spray on wheat seedlings, visual disease rating (100 = 100% control; * 50 ppm, ** 10 ppm, *** 250 ppm). The conditions noted are these: 100 = 100% disease control; for pest or weed control at 250 ppm / Test E disease control rating: 250 ppm test suspension.
Description: as §1
The test suspension was sprayed to the point of run-off on wheat seedlings. The following day the seedlings were inoculated with a spore dust of Blumeria graminis f. sp. tritici, (also known as Erysiphe graminis f. sp. tritici, the causal agent of wheat powdery mildew) and incubated in a growth chamber at 20° C. for 8 days, after which time visual disease ratings were made.
as §2

Assay [4] has as its system Phakopsora pachyrhizi (the causal agent of Asian soybean rust). Briefly: Test A: preventive spray on soybean seedlings, visual disease rating (100 = 100% control; * 50 ppm, ** 10 ppm, *** 250 ppm). The conditions noted are these: 100 = 100% disease control. Put shortly:
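Soybean seedlings sprayed to run-off with compound suspended in acetone/water with 250 ppm PEG400 surfactant, inoculated next day with P. pachyrhizi spores. Kept 24 h saturated at 22 °C, then 8 days at 22 °C before visual rating of disease control (0-100) relative to controls.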

For assay [5] the test system is unchanged. Nature of the assay: Test F: Compound 32 or 64 alone and in mixtures on soybean seedlings, observed (Obsd) and Colby expected (Exp) disease control. Particulars: for pest or weed control at 486.921 ppm: tebuconazole 486.921 ppm alone; for pest or weed control at 841.166 ppm: tebuconazole 841.166 ppm alone; for pest or weed control at 37.333 ppm: cyproconazole 37.333 ppm alone; for pest or weed control at 64.883 ppm: cyproconazole 64.883 ppm alone; for pest or weed control at 45.86 ppm: pyraclostrobin 45.860 ppm alone; for pest or weed control at 137.503 ppm: pyraclostrobin 137.503 ppm alone; for pest or weed control at 20.511 ppm: trifloxystrobin 20.511 ppm alone; for pest or weed control at 35.31 ppm: trifloxystrobin 35.310 ppm alone. From the text: The general protocol for preparing test compositions for Test F was as follows: Compound 32, Compound 64, azoxystrobin, benzovindiflupyr, bixafen, chlorothalonil, cyproconazole, epoxiconazole, fenpropidin, fenpropimorph, fluindapyr, flutriafol, fluxapyroxad, metominostrobin, picoxystrobin, prothioconazole, pydiflumetofen, pyraclostrobin, tebuconazole and trifloxystrobin were obtained as unformulated, technical-grade materials. Copper hydroxide and mancozeb was obtained as a formulated product marketed under the trademarks KOCIDE 3000 and MANZATE, respectively. Unformulated materials were first dissolved in acetone and then suspended at the desired concentration (in ppm) in acetone and purified water (50/50 mix by volume) containing 250 ppm of the surfactant Trem® 014 (polyhydric alcohol esters). Formulated materials were dispersed in sufficient water to give the desired concentration, and neither organic solvent nor surfactant was added to the suspension. The resulting test mixtures were then used in Test F. The tests were run on four individual plants and the results reported as the mean average of the four plants.
The presence of a synergistic effect between two active ingredients was established with the aid of the Colby equation (see Colby, S. R. “Calculating Synergistic and Antagonistic Responses of Herbicide Combinations”, Weeds, (1967), 15, 20-22):
Using the method of Colby, the presence of a synergistic interaction between two active ingredients is established by first calculating the predicted activity, p, of the mixture based on activities of the two components applied alone. If p is lower than the experimentally established effect, synergism has occurred. In the equation above, A is the fungicidal activity in percentage control of one component applied alone at rate x. The B term is the fungicidal activity in percentage control of the second component applied at rate y. The equation estimates p, the expected fungicidal activity of the mixture of A at rate x with B at rate y if their effects are strictly additive and no interaction has occurred.
The test mixture was sprayed to the point of run-off on soybean seedlings. The following day the seedlings were inoculated with a spore suspension of Phakopsora pachyrhizi (the causal agent of Asian soybean rust) and incubated in a saturated atmosphere at 22° C. for 24 h and then moved to a growth chamber at 22° C. for 8 days, after which time visual disease ratings were made.
Results for Test F are given in Tables B-1 through I-1 for Compound 32 and Tables B-2 through I-2 for Compound 64. Each table corresponds to a set of evaluations performed together at the same time. In each table, a rating of 100 indicates 100% disease control and a rating of 0 indicates no disease control (relative to the controls). Columns labeled “Obsd” indicate the average of results observed from test run on four individual plants. Columns labeled “Exp” indicate the expected value for each treatment mixture using the Colby equation.

The mark [6] stands for this setting: Blumeria graminis, wheat seedlings.
[7] abbreviates: 50 ppm test suspension, 0 = no control.
Where [8] appears, read: 10 ppm test suspension, 0 = no control.
Where [9] appears, read: 10 ppm test suspension, soybean seedlings.
Where [10] appears, read: 10 ppm test suspension, wheat seedlings.
The mark [11] stands for this setting: Puccinia recondita, 50 ppm test suspension, wheat seedlings.
[12] abbreviates: Phakopsora pachyrhizi, Table D-1.
Where [13] appears, read: Phakopsora pachyrhizi, Table D-2.
The mark [14] stands for this setting: Phakopsora pachyrhizi, Table E-2.
Where [15] appears, read: Phakopsora pachyrhizi, Table H-1.
The mark [16] stands for this setting: Phakopsora pachyrhizi, Table H-2.

For the compound `CCOC(=O)c1cnn(Cc2ccc(OCC(O)(O)C(F)(F)F)cc2)c1` [Compound 1, ethyl 1-[[4-(3,3,3-trifluoro-2,2-dihydroxypropoxy)phenyl]methyl]-1H-pyrazole-4-carboxylate], the pest or weed control (in general, how far the test organism was held down) at 250 ppm in assay [1] (Puccinia recondita, 250 ppm test suspension, wheat seedlings) was found to be 91%; in assay [2] (wheat seedlings), 97%; in assay [3] (setting [6]), 81%.
In the case of `CCOC(=COc1ccc(NC(=O)c2ccccc2F)cc1)C(F)(F)F` [compound 461], the “Test A disease control rating” value in assay [4] (setting [7]) is listed as 0%. In addition, the “Test B disease control rating” value in assay [1] (setting [7]) was determined as 0%. The “Test D disease control rating” value in assay [2] (0 = no control) is recorded as 53*** %. The “Test E disease control rating” value in assay [3] (0 = no control) is listed as 69*** %.
With `CCOC(=O)c1cnn(Cc2ccc(OCC(O)(O)C(F)(F)F)c(F)c2)c1` [Compound 264], in assay [4] (setting [8]), the “Test A disease control rating” value is on record as 99%. In assay [1] (setting [8]), the “Test B disease control rating” value came out at 80%. Moreover, the “Test D disease control rating” value in assay [2] (0 = no control) is on record as 95*** %. Moreover, in assay [3] (0 = no control), the “Test E disease control rating” value is reported as 96*** %.
With `CCOC(=O)c1cnn(Cc2ccc(N(C#N)CC(O)(O)C(F)(F)F)cc2)c1` [compound 381], the “Test A disease control rating” value in assay [4] (setting [8]) came out at 25%. In addition, the “Test B disease control rating” value in assay [1] (setting [8]) is 28%. Further, in assay [2] (0 = no control), the “Test D disease control rating” value is 0*** %. In addition, the “Test E disease control rating” value in assay [3] (0 = no control) is reported as 69*** %.
As for `CCS(=O)(=O)Cc1ccc(OCC(O)(O)C(F)(F)F)cc1` [compound 29], in assay [4] (setting [9]), the “Test A disease control rating” value stood at 84%. Also, in assay [1] (setting [10]), the “Test B disease control rating” value stood at 28%. Moreover, the “Test D disease control rating” value in assay [2] (wheat seedlings) was 0*** %. In addition, in assay [3] (wheat seedlings), the “Test E disease control rating” value is given as 79*** %.
`O=[N+]([O-])c1ccc(OCC(O)(O)C(F)(F)F)cc1` [compound 280]: in assay [4] (setting [7]), the “Test A disease control rating” value came out at 100%. Besides, in assay [1] (setting [7]), the “Test B disease control rating” value was 100%. In assay [2] (0 = no control), the “Test D disease control rating” value was 99*** %. Moreover, the “Test E disease control rating” value in assay [3] (0 = no control) is on record as 99*** %.
For the compound `CCOC(=O)c1cnn(Cc2ccc(OCC(O)(O)C(F)(F)F)c(Cl)c2)c1` [Compound 459], in assay [4] (setting [7]), the “Test A disease control rating” value came out at 100%. In assay [1] (setting [7]), the “Test B disease control rating” value is 97%. Moreover, the “Test D disease control rating” value in assay [2] (0 = no control) is given as 37*** %. Besides, the “Test E disease control rating” value in assay [3] (0 = no control) is 0*** %.
On to `CCO/C(=C\Oc1ccc(Cn2cc(C(=O)OCC(=O)c3ccccc3)cn2)cc1)C(F)(F)F` [compound 244], for which the “Test A disease control rating” value in assay [4] (setting [9]) was 100%. In addition, the “Test B disease control rating” value in assay [1] (setting [10]) came to 0%. The “Test D disease control rating” value in assay [2] (wheat seedlings) is 0*** %. The “Test E disease control rating” value in assay [3] (wheat seedlings) is 0*** %.
For `CO/C=C(/C(=O)OC)c1ccccc1Oc1cc(Oc2ccccc2C#N)ncn1` [azoxystrobin], the Obsd disease control in assay [5] (azoxystrobin 95.873 ppm alone, Table E-1) is 70%; in assay [5] (azoxystrobin 95.873 ppm alone, Table E-2) it was 70%; in assay [5] (azoxystrobin 169.226 ppm alone, Table E-1), 88%; in assay [5] (azoxystrobin 169.226 ppm alone, Table E-2) it was 88%.
With `CCOC(=O)c1cnn(Cc2ccc(OCC3(C(F)(F)F)OCCO3)cn2)c1` [compound 124], the pest or weed control at 50 ppm in assay [1] (setting [11]) turned out to be 0%; in assay [3] (Blumeria graminis, 50 ppm test suspension, wheat seedlings) it was 98%. In assay [2] (wheat seedlings), the pest or weed control at 250 ppm turned out to be 92%.
In the case of `CC(C)(C)C(O)(CCc1ccc(Cl)cc1)Cn1cncn1` (centres unmarked) [tebuconazole], in assay [5] (setting [12]), the pest or weed control at 486.921 ppm was 30% and the pest or weed control at 841.166 ppm amounted to 55%. In assay [5] (setting [13]), the pest or weed control at 486.921 ppm stood at 30% and the pest or weed control at 841.166 ppm is 55%.
On to `COC(=O)c1ccc(OCC(O)(O)C(F)(F)F)cc1` [Compound 229, methyl 4-(3,3,3-trifluoro-2,2-dihydroxypropoxy)phenylcarboxylate], for which the pest or weed control at 50 ppm in assay [1] (setting [11]) amounted to 100%. Also, the pest or weed control at 250 ppm was 96% in assay [2] (wheat seedlings) and 99% in assay [3] (setting [6]).
As to `CC(=O)N1CC(c2ccc(OCC3(C(F)(F)F)OCCO3)cc2)C1` [compound 372], the “Test A disease control rating” value in assay [4] (setting [7]) was 97%. In assay [1] (setting [7]), the “Test B disease control rating” value came out at 28%. Besides, the “Test D disease control rating” value in assay [2] (0 = no control) is recorded as 99*** %. Besides, the “Test E disease control rating” value in assay [3] (0 = no control) was 99*** %.
Consider `CC(C1CC1)C(O)(Cn1cncn1)c1ccc(Cl)cc1` (centres unmarked) [cyproconazole], for which the pest or weed control at 37.333 ppm in assay [5] (setting [14]) and in assay [5] (Table E-1) was 44% each time. In addition, the pest or weed control at 64.883 ppm in assay [5] (setting [14]) and in assay [5] (Table E-1) was 68% each time.
As for `COC(=O)N(OC)c1ccccc1COc1ccn(-c2ccc(Cl)cc2)n1` [pyraclostrobin], the pest or weed control at 45.86 ppm in assay [5] (setting [15]) and in assay [5] (setting [16]) was 35% each time. For the same compound, the pest or weed control at 137.503 ppm in assay [5] (setting [15]) and in assay [5] (setting [16]) was 45% each time.
On to `CON=C(C(=O)OC)c1ccccc1CON=C(C)c1cccc(C(F)(F)F)c1` [trifloxystrobin], for which, in assay [5] (setting [14]), the pest or weed control at 20.511 ppm is 69% and the pest or weed control at 35.31 ppm came out at 86%. Besides, in assay [5] (Table E-1), the pest or weed control at 20.511 ppm turned out to be 69% and the pest or weed control at 35.31 ppm stood at 86%.
Consider `Cn1cc(C(=O)Nc2cccc3c2[C@@H]2CC[C@H]3C2=C(Cl)Cl)c(C(F)F)n1` (racemic) [benzovindiflupyr], for which the Obsd disease control turned out to be 67% in assay [5] (benzovindiflupyr 0.606 ppm alone, Table G-1); 67% in assay [5] (benzovindiflupyr 0.606 ppm alone, Table G-2); 67% in assay [5] (benzovindiflupyr 0.980 ppm alone, Table G-1); 67% in assay [5] (benzovindiflupyr 0.980 ppm alone, Table G-2).
